Measurements as given in BindingDB's records for doi:10.1021/jm00123a012 (Dainippon Pharmaceutical, 1989).

Target: Polyunsaturated fatty acid 5-lipoxygenase (Cavia porcellus)
Experiment: Inhibitory activity against 5-lipoxygenase in guinea pig leukocyte

IC50: 4.86 µM
SMILES: Cc1ccc(/C=C/C(=O)NCCCCN2CCN(C(c3ccccc3)c3ccccc3)CC2)cn1 [N-[4-(4-Benzhydryl-piperazin-1-yl)-butyl]-3-(6-methyl-pyridin-3-yl)-acrylamide]
